The source of these data is patent US8309557B2, “Pyrimidin-4-ylpropanedinitrile derivatives, processes for their preparation and their use as herbicides and plant growth regulators” (Bayer Intellectual Property GmbH, priority 2009, dated 2012).

The structures appear in SMILES notation.

What all share (assay type): in vivo
For one test, the system named is Sinapis alba. The test is described as follows: Herbicidal effect pre-emergence, Sinapis alba. As to conditions: 0.32 kg of active substance per hectare, visual grading after 3 weeks. The source says:
(§1) Seeds of mono- and dicotyledonous weed plants and crop plants are planted in wood-fiber pots in sandy loam and covered with earth. The compounds according to the invention, formulated in the form of wettable powders (WP) or as emulsion concentrates (EC), are then applied to the surface of the covering earth as aqueous suspension or emulsion at an application rate corresponding to 320 g/hectare at an application rate of 600 to 800 l of water/ha (converted) with the addition of 0.2% wetting agent.
(§2) Following treatment, the pots are placed in a greenhouse and kept under good growth conditions for the test plants. The visual grading of the damage to the test plants is carried out after a test time of 3 weeks in comparison to untreated controls (herbicidal effect in percent (%): 100% effect=plants have died off, 0% effect=as control plants).

A further test concerns Amaranthus retroflexus. The experiment in a line: Herbicidal effect pre-emergence, AMARE. As to conditions: 0.32 kg of active substance per hectare, visual grading after 3 weeks. The method, boiled down:
(§3)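 Seeds sown in sandy loam and covered with soil; compounds formulated as WP or EC were sprayed onto the soil surface as aqueous suspension/emulsion at 320 g/ha in 600 to 800 l water/ha with 0.2% wetting agent. Greenhouse growth; visual damage scored after 3 weeks versus untreated controls (0–100%).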

The next test deals with Alopecurus myosuroides. The test is described as follows: Herbicidal effect pre-emergence, ALOMY. As to conditions: 0.32 kg of active substance per hectare, visual grading after 3 weeks.
Description: as §1, §2

The next test relates to Abutilon theophrasti. The test is described as follows: Herbicidal effect pre-emergence, ABUTH. To be noted: 0.32 kg of active substance per hectare, visual grading after 3 weeks.
Description: as §1, §2

The test system of a further test is Echinochloa crus-galli. The experiment in a line: Herbicidal effect pre-emergence, ECHCG. To be noted: 0.32 kg of active substance per hectare, visual grading after 3 weeks.
Description: as §1, §2

A further test concerns Setaria viridis. The experiment in a line: Herbicidal effect pre-emergence, SETVI. As to conditions: 0.32 kg of active substance per hectare, visual grading after 3 weeks.
Description: as §1, §2

Another test has as its system Avena fatua. The experiment in a line: Herbicidal effect pre-emergence, Avena fatua. To be noted: 0.32 kg of active substance per hectare, visual grading after 3 weeks.
Description: as §1, §2

The subject of a further test is Lolium multiflorum. The test is described as follows: Herbicidal effect pre-emergence, LOLMU. As to conditions: 0.32 kg of active substance per hectare, visual grading after 3 weeks.
Description: as §1, §2

A further test has as its system Viola tricolor. The experiment in a line: Herbicidal effect pre-emergence, VIOTR. As to conditions: 320 g/hectare, visual grading after 3 weeks vs untreated controls. The method, boiled down: as §3
The subject of a further test is Stellaria media. The test is described as follows: Herbicidal effect pre-emergence, STEME. As to conditions: 0.32 kg of active substance per hectare, visual grading after 3 weeks.
Description: as §1, §2

For the next test, the system named is Veronica persica. The experiment in a line: Herbicidal effect pre-emergence, VERPE. As to conditions: 320 g/hectare, visual grading after 3 weeks vs untreated controls. The procedure, abridged:
as §3

As to `N#CC(C#N)c1nc(-c2ccc([N+](=O)[O-])cc2)nc(N)c1Cl` [compound 9], the herbicidal effect result with Sinapis alba, with Amaranthus retroflexus, in the test with Alopecurus myosuroides, in the test on Abutilon theophrasti, with Echinochloa crus-galli and with Setaria viridis was “very good herbicidal effect” throughout. Also, the herbicidal effect result in the test with Avena fatua, in the test with Lolium multiflorum and in the test on Stellaria media was “very good herbicidal effect” each time. The “Effect in % in respect of stated plant, VIOTR” value in the test with Viola tricolor is given as 90%. In the test with Veronica persica, the “Effect in % in respect of stated plant, VERPE” value amounted to 80%.
